From patent US7645610B2, “Hepatocyte precursor cell lines” (Massachusetts Institute of Technology, priority 2002, dated 2010)

Tests used:
Assay type in all cases: cell-based, rat
Xs-derived cell lines = test: Colony formation efficiency, Xs-derived lines as a group; details: n=8
From the text: (§1) There was a marked difference in the cell kinetics properties of early passage conventional lines (Lig-1 to -3 in Table 1) and Xs-derived lines (Lig-4 to -15 in Table 1). […] The estimated mean increase in colony formation efficiency for Xs-derived cell lines in Xs-supplemented medium was 11-fold (n=8), ranging from a 10% increase to a 40-fold increase (Lig-13 in Table 1; p<0.0001). The growth of conventional cell lines was unaffected by Xs even when the Xs concentration was doubled (data not shown). [table]

Lig-8 cells [1] = test: Differentiation marker expression, Xs-free vs Xs-supplemented, Lig-8; design: key: −: no expression detected; +/−: weak expression; +: expression detected; !: increased expression in Xs-free conditions; *: no increased expression in Xs-free conditions
conventional cell lines = test: Growth of conventional cell lines with Xs; details: even when the Xs concentration was doubled (data not shown)
From the text: as §1, with “shown).” for “shown). [table]”

Lig-2 cells = test: Colony formation efficiency, Lig-2
Lig-13 cells [2] = test: Daughter pair analysis (DPA), Lig-13; details: independent of Xs concentration
Procedure: (§2) Into 10-cm diameter culture dishes, an estimated 1750 cells were plated in DMEM-10% dFBS, supplemented at the Xs concentration used for derivation, and cultured for 16 hours. Medium was then replaced with either Xs-free medium or medium containing 100 μM Xs, and cells were cultured for an additional 48 h (GT=60 h). Bromo-5-deoxyuridine (BrdU) was then added to the cultures to a concentration of 5 μM for 5 hours. Detection of incorporated BrdU was performed using primary antibody Bu1-75 (Harlan), and a biotinylated secondary antibody (Vector Laboratories) with avidin-fluorescein visualization. Nuclei were detected by staining with 0.5 μg/ml DAPI (Molecular Probes). Images were captured using a Nikon TE300 microscope, Orca camera, and Openlab software (Improvision). The assay is called a “daughter pair analysis” (DPA). To perform the DPA, cells were plated in Xs-containing medium at microcolony density. After allowing 4 to 5 hours for cell adherence, parallel cultures were replaced with fresh medium that was either Xs-supplemented or Xs-free. After allowing time for cell divisions to produce “daughter pairs”, the cells were cultured for 4 hours with the thymidine analogue bromodeoxyuridine (BrdU). Cells were then fixed and evaluated for BrdU incorporation by in situ immunofluorescence.

Lig-6 cells = test: Colony formation efficiency, Lig-6
Lig-7 cells = test: Colony formation efficiency, Lig-7
Lig-4 cells = test: Colony formation efficiency, Lig-4
Lig-8 cells [3] = test: Colony formation efficiency, Lig-8
Lig-3 cells [4] = test: Colony formation efficiency, Lig-3
Lig-1 cells [5] = test: Differentiation marker expression, Xs-free conditions, Lig-1; design: key: −: no expression detected; +/−: weak expression; +: expression detected; !: increased expression in Xs-free conditions; *: no increased expression in Xs-free conditions; details: in situ immunofluorescence, confluent growth arrest in 1% serum 1-2 weeks
Lig-3 cells [6] = test: Differentiation marker expression, Xs-free conditions, Lig-3; design: key: −: no expression detected; +/−: weak expression; +: expression detected; !: increased expression in Xs-free conditions; *: no increased expression in Xs-free conditions; details: in situ immunofluorescence, confluent growth arrest in 1% serum 1-2 weeks
Lig-9 cells [7] = test: Colony formation efficiency, Lig-9
Lig-8 cells [8] = test: Daughter pair analysis (DPA), Lig-8; details: Xs added, 16% in the absence of Xs, n=58 pairs
Procedure: as §2

Lig-13 cells [9] = test: Differentiation marker expression, Xs-free vs Xs-supplemented, Lig-13; design: key: −: no expression detected; +/−: weak expression; +: expression detected; !: increased expression in Xs-free conditions; *: no increased expression in Xs-free conditions
Procedure: To prepare cell lysates, cells were cultured until 95% confluent. After washing once with ice cold PBS, the cells were solubilized on ice in ice-cold lysis buffer (RIPA buffer; Hinds et al., 1987). The cell lysates were clarified by centrifugation at 13,000 rpm (Eppendorf™ microfuge) for 30 minutes at 4°0 C. and stored at −70°0 C. until further analysis. Soluble protein in lysates was quantified using the Bio-Rad DC™ assay. Twenty micrograms of cell lysates or 25 μl of culture medium samples were separated by SDS-PAGE (8-12% polyacrylamide) and analyzed for specific proteins by the following immunoblot procedure. Electrophoresed proteins were transferred to Hybond ECL membranes in Tris-Glycine-Methanol buffer (25 mM Tris-HCl, pH 7.5, 190 mM glycine, 20% methanol) for 1 hour at 100 volts at room temperature. Membranes were then stained with Ponceau S (0.5%) to verify uniform protein transfer and then blocked with Tris-buffered saline, 5% non-fat dried milk, 0.1% Tween-20 at room temperature for 1 hour. Following three 10-minute washes at room temperature in Tris-buffered saline, 0.1% Tween-20, the membranes were incubated with the specific primary antibodies diluted appropriately in Tris-buffered saline, 1% milk, 0.1% Tween-20 for 12-15 hours at 4° C. For albumin detection, membranes were incubated with an anti-albumin-HRP antibody (EY Laboratories) for 1 hour at room temperature. After removal of the unbound antibodies with three 10-minute washes in Tris-buffered saline-0.1% Tween-20, the membranes (except for albumin detection) were incubated with the anti-goat-HRP (1:2000) or anti-mouse HRP (1:5000) for 1 hour at room temperature. After three 10-minute washes with Tris-buffered saline-0.1% Tween-20, specifically bound HRP-conjugated antibodies were detected using the Amersham Enhanced Chemiluminescence Plus™ system. To re-probe a membrane with a different antibody, it was first incubated for 2.5 h in 0.1M glycine (pH 2.5) at room temperature. Immunohistochemical staining was performed with HRP-conjugated secondary antibodies as recommended by the supplier of primary detection antibodies. [table]

Lig-13 cells [10] = test: Colony formation efficiency, Lig-13
Lig-1 cells [11] = test: Colony formation efficiency, Lig-1
Lig-15 cells = test: Colony formation efficiency, Lig-15
Lig-9 cells [12] = test: Fc(t) assay for asymmetric cell kinetics, Lig-9
Procedure: To initiate the assay, 100 cells were plated in 75-cm^2 flasks. After a 16-hour growth period, pairs of new daughter cells were identified under the microscope, and their positions marked for serial examination. Thereafter, the marked microcolonies were examined at roughly ⅓ GT intervals for at least 2 generations. At each examination, the fraction of cells that divided during the previous interval was calculated as described (Sherley et al., 1995a). The estimated cell GT of examined lines was determined simultaneously as described (Sherley et al., 1995ab).
A previously described serial colony formation analyses (the “Fc[t] assay”; Sherley et al., 1995a) was used to quantify the degree of asymmetric cell kinetics by Xs-derived cell lines. The Fc(t) assay quantifies the accumulation rate of cells in micro-colonies examined by serial phase microscopy at intervals of less than one GT from the 2-cell stage (Sherley et al., 1995a). Fc(t) is calculated by summing the fractions of dividing cells determined in each interval and dividing by the total number of GTs examined. When cells divide with symmetric kinetics, the value of Fc(t) approaches 1.0, regardless of the length of the examination period. For asymmetric kinetics, in which one non-dividing daughter is produced at each cell division, Fc(t) is a declining flnction that approaches […] with increasing exam time. […]

Lig-14 cells = test: Colony formation efficiency, Lig-14
[13] = in situ immunofluorescence, confluent growth arrest in 1% serum 1-2 weeks
[14] = 50 μM xanthosine, 200 cells per well, 14 days
[15] = colony formation efficiency, 50 μM xanthosine vs Xs-free

O=c1[nH]c(=O)c2ncn([C@@H]3O[C@H](CO)[C@@H](O)[C@H]3O)c2[nH]1 [Xs, Xanthosine]
estimated mean increase in colony formation efficiency in Xs-supplemented medium (Xs-derived cell lines): 11 fold
Albumin (ALB) expression, change in Xs-free conditions (Lig-8 cells [1]; immunoblot): +!
Cytokeratin 7 (CK7) expression, change in Xs-free conditions (Lig-8 cells [1]; immunoblot): +*
α1-Antitrypsin (AAT) expression, change in Xs-free conditions (Lig-8 cells [1]; immunoblot): +!
α-Fetoprotein (AFP) expression, change in Xs-free conditions (Lig-8 cells [1]; immunoblot): +!
H.4 expression, change in Xs-free conditions (Lig-8 cells [1]; [13]): +!
growth of conventional cell lines with Xs (conventional cell lines): unaffected
Colony formation efficiency Xs+ (Mean % ± SD; n = 6) (Lig-2 cells; [14]): 29 ± 3.7%
Xs+/Xs− Ratio (Lig-2 cells; [15]): 1.0
fraction of symmetric BrdU(+) daughter pairs (Lig-13 cells [2]): 76%
Colony formation efficiency Xs+ (Mean % ± SD; n = 6) (Lig-6 cells; Lig-6 (derived in 400 μM Xs), 50 μM xanthosine, 200 cells per well, 14 days): 5.3 ± 1.8%
Xs+/Xs− Ratio (Lig-6 cells; Lig-6, colony formation efficiency, 50 μM xanthosine vs Xs-free): 1.4
Colony formation efficiency Xs+ (Mean % ± SD; n = 6) (Lig-7 cells; Lig-7 (derived in 400 μM Xs), 50 μM xanthosine, 200 cells per well, 14 days): 6.7 ± 2.2%
Xs+/Xs− Ratio (Lig-7 cells; Lig-7, colony formation efficiency, 50 μM xanthosine vs Xs-free): ≧22
Colony formation efficiency Xs+ (Mean % ± SD; n = 6) (Lig-4 cells; Lig-4 (derived in 400 μM Xs), 50 μM xanthosine, 200 cells per well, 14 days): 8.0 ± 1.1%
Xs+/Xs− Ratio (Lig-4 cells; Lig-4, colony formation efficiency, 50 μM xanthosine vs Xs-free): 1.5
Colony formation efficiency Xs+ (Mean % ± SD; n = 6) (Lig-8 cells [3]; Lig-8 (derived in 400 μM Xs), 50 μM xanthosine, 200 cells per well, 14 days): 22 ± 3.6%
Xs+/Xs− Ratio (Lig-8 cells [3]; Lig-8, colony formation efficiency, 50 μM xanthosine vs Xs-free): 17
Colony formation efficiency Xs+ (Mean % ± SD; n = 6) (Lig-3 cells [4]; [14]): 18 ± 3.7%
Xs+/Xs− Ratio (Lig-3 cells [4]; [15]): 1.0
H.4 expression, change in Xs-free conditions (Lig-1 cells [5]): +*
H.4 expression, change in Xs-free conditions (Lig-3 cells [6]): +/−*
Colony formation efficiency Xs+ (Mean % ± SD; n = 6) (Lig-9 cells [7]; Lig-9 (derived in 400 μM Xs), 50 μM xanthosine, 200 cells per well, 14 days): 11 ± 2.6%
Xs+/Xs− Ratio (Lig-9 cells [7]; Lig-9, colony formation efficiency, 50 μM xanthosine vs Xs-free): 1.1
fraction of double-BrdU(+) daughter pairs (Lig-8 cells [8]): 76%
Albumin (ALB) expression, change in Xs-free conditions (Lig-13 cells [9]; immunoblot): +*
Cytokeratin 7 (CK7) expression, change in Xs-free conditions (Lig-13 cells [9]; immunoblot): +!
α1-Antitrypsin (AAT) expression, change in Xs-free conditions (Lig-13 cells [9]; immunoblot): +/−*
α-Fetoprotein (AFP) expression, change in Xs-free conditions (Lig-13 cells [9]; immunoblot): +*
H.4 expression, change in Xs-free conditions (Lig-13 cells [9]; [13]): +/−*
Colony formation efficiency Xs+ (Mean % ± SD; n = 6) (Lig-13 cells [10]; Lig-13 (derived in 200 μM Xs), 50 μM xanthosine, 200 cells per well, 14 days): 12 ± 2.7%
Xs+/Xs− Ratio (Lig-13 cells [10]; Lig-13, colony formation efficiency, 50 μM xanthosine vs Xs-free): 40
increase in colony formation efficiency in Xs-supplemented medium (Lig-13 cells [10]; Lig-13, p<0.0001): 40 fold
Colony formation efficiency Xs+ (Mean % ± SD; n = 6) (Lig-1 cells [11]; [14]): 9.8 ± 2.2%
Xs+/Xs− Ratio (Lig-1 cells [11]; [15]): 0.9
Colony formation efficiency Xs+ (Mean % ± SD; n = 6) (Lig-15 cells; Lig-15 (derived in 200 μM Xs), 50 μM xanthosine, 200 cells per well, 14 days): 10 ± 1.6%
Xs+/Xs− Ratio (Lig-15 cells; Lig-15, colony formation efficiency, 50 μM xanthosine vs Xs-free): 5.3
effect of Xs on terminal division fraction (Lig-9 cells [12]; 100 μM Xs): did not significantly affect
Terminal Division Fraction (Lig-9 cells [12]; Xs+, 2-cell microcolonies with no division in 5 days, Xs− 0.58): 0.47
Colony formation efficiency Xs+ (Mean % ± SD; n = 6) (Lig-14 cells; Lig-14 (derived in 200 μM Xs), 50 μM xanthosine, 200 cells per well, 14 days): 0.4 ± 0.67%
Xs+/Xs− Ratio (Lig-14 cells; Lig-14, colony formation efficiency, 50 μM xanthosine vs Xs-free): 1.3
